Data on 24 molecules can be found in US12171756B2, “NLRP3 modulators” (Innate Tumor Immunity, Inc., priority 2017, dated 2024).

For experiment [1], the system named is IL-1β production in PMA-differentiated THP-1 cells. Briefly: Measurement of IL-1β production in PMA-differentiated THP-1 cells (ELISA, 4 hours). The experiment is classed as cell-based, human. Conditions: Homo sapiens, THP-1, human IL-1β production, assayed using one or more of the described procedures, read-out: NLRP3 hIL1B IC50. The protocol:
Measurement of IL-1β Production in PMA-Differentiated THP-1 Cells THP-1 cells were purchased from the American Type Culture Collection and sub-cultured according to instructions from the supplier. Prior to experiments, cells were cultured in RPMI 1640 containing 10% heat inactivated FBS, penicillin (100 units/ml) and streptomycin (100 μg/ml), and maintained in log phase prior to experimental setup. Prior to the experiment THP-1 were treated with PMA (Phorbol 12-myristate 13-acetate) (10 μg/ml) for 24 hours. The day of the experiment the media was removed and attaching cells were treated with trypsin for 2 minutes, cells were then collected, washed with PBS (phosphate buffer saline), spin down, resuspended in 2% heat inactivated FBS with RPMI at a concentration of 1×10^6 cells/ml, and 100 μl was plated in a 96 well plate. Compounds were dissolved in dimethyl sulfoxide (DMSO) and added to the culture medium to achieve desired concentration (e.g. 100, 30, 10, 3, 1, 0.3 or 0.1 μM). Cells were incubated with compounds for 4 hours. Cell free supernatant was collected and the production of IL-1β was evaluated by ELISA. A vehicle only control was run concurrently with each experiment. Final DMSO concentration was 1%.
(ELISA stands for enzyme-linked immunosorbent assay.)

The target in another experiment is T1, human TLR7 (Homo sapiens, UniProt Q9NYK1).
T1 construct: host or cells: human HEK-Blue cells (HEK293-derived) co-expressing TLR7 and an NF-kB/AP1-inducible SEAP reporter
T1 sequence (Q9NYK1 27-1049): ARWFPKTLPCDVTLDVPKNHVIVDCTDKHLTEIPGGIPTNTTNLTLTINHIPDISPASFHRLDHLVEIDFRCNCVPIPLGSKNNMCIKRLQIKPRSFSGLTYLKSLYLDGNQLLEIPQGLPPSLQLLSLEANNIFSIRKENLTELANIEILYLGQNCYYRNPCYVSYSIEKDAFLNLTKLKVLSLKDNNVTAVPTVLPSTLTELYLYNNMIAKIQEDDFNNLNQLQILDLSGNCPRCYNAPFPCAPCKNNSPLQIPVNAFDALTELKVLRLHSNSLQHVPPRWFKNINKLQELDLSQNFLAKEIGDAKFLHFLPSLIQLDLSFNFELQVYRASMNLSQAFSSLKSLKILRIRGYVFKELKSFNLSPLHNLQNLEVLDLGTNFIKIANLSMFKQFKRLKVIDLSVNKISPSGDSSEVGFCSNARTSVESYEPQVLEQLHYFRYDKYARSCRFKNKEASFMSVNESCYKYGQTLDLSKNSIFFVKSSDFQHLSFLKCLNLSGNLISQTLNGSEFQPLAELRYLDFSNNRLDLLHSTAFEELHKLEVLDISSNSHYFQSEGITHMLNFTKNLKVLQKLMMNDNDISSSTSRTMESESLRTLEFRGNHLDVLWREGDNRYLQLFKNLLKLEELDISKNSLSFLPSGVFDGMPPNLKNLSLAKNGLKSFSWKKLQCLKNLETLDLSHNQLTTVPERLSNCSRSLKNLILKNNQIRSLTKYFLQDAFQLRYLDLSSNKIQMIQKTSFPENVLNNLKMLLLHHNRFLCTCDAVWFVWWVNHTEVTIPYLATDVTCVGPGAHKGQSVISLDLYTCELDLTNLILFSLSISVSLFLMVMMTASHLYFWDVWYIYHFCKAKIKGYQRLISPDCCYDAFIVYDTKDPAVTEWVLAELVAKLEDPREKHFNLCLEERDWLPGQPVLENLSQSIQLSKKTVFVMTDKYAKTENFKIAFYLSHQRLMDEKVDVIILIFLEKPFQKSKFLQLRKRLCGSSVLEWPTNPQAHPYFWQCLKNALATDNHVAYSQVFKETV
Briefly: In vitro human TLR7 binding reporter assay (HEK-Blue, NF-kB/AP1-inducible SEAP). It counts as cell-based. Conditions: HEK-Blue human TLR7 SEAP reporter cells; activity range classes; read-out: TLR7 Agonist EC50. The protocol: (§1) In Vitro Human TLR7 and TLR8 Binding Reporter Assays
(§2) Logarithmically-growing human HEK-Blue cells co-expressing a TLR7 or TLR8 gene and a NF-kB/AP1-inducible SEAP (secreted embryonic alkaline phosphatase; Invivogen, San Diego, CA) reporter gene are added to individual wells of a 384-well plate (15,000 cells per 20 μL per well) and maintained for 24 h at 37° C., 5% CO2. Test compounds or DMSO are distributed to separate wells the next day using acoustic liquid handling technology (100 nL per well) and cells are subsequently incubated for 18 h at 37° C., 5% CO2. Cellular SEAP production is measured using an Envision plate reader instrument thirty minutes after adding freshly-made Quanti-Blue reagent (prepared by following manufacturer instructions; Invivogen, San Diego, CA) to the HEK-Blue TLR Nf-kB-SEAP cell reactions. All EC50 values (half-maximal effective concentration) are determined using proprietary data analysis software. Normalized EC50 value=absolute value determined by setting 100% Ymax using a reference standard RLU (relative light unit) values from cells treated with 50 μM of the reference standard.

For a further experiment, the target named is T2, human TLR8 (Homo sapiens, UniProt Q9NR97).
T2 construct: host or cells: human HEK-Blue cells (HEK293-derived) co-expressing TLR8 and an NF-kB/AP1-inducible SEAP reporter
T2 sequence (Q9NR97 27-1041): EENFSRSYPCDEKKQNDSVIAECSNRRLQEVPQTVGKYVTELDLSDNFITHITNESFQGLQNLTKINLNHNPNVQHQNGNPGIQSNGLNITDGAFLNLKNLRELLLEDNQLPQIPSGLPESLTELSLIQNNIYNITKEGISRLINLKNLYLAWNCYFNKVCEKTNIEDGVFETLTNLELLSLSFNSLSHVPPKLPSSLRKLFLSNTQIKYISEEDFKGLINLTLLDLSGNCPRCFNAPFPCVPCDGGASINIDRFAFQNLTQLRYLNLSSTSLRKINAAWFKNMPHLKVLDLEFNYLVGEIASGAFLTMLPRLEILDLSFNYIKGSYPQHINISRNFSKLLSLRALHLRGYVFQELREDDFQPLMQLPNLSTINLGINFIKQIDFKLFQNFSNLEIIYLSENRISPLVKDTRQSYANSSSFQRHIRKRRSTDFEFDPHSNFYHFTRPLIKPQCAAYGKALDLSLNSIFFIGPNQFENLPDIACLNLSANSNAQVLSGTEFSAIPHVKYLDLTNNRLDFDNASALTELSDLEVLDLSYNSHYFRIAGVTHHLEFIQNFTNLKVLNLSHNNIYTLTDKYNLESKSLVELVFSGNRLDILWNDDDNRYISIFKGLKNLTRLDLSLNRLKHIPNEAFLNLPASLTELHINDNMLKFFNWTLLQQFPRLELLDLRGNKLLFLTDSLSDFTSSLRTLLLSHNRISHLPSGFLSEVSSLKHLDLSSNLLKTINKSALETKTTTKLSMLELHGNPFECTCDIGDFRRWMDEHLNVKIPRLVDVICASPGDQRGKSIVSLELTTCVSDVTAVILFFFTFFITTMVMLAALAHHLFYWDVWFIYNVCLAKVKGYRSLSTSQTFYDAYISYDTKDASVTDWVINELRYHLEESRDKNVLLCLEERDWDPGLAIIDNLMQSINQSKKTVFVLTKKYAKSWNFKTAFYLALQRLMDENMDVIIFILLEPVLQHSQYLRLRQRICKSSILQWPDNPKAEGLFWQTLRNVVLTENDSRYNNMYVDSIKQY
Briefly: In vitro human TLR8 binding reporter assay (HEK-Blue, NF-kB/AP1-inducible SEAP). The experiment is classed as cell-based. The settings on record: HEK-Blue human TLR8 SEAP reporter cells; activity range classes; read-out: TLR8 Agonist EC50. Here is the method:
as §1, §2
In general terms: A reporter such as luciferase makes a cellular process visible.

Take `Nc1cc(N[C@@H]2CCOC2)c2ccc(-c3ccn[nH]3)cc2n1` [Compound 276]: the IC50 in experiment [1] was determined as 0.52 µM. The EC50 at human TLR7 and on human TLR8 was more than 100 µM each time.
Consider `COCCCOc1cc(N)nc2cc(-c3ccn[nH]3)ccc12` [Compound 193], for which, in experiment [1], the IC50 came to 1.69 µM. In addition, the EC50 on human TLR7 and on human TLR8 was more than 100 µM each time.
In the case of `Nc1cc(NC[C@H]2COCCN2)c2ccc(-c3ccn[nH]3)cc2n1` [Compound 269], the IC50 in experiment [1] turned out to be 1.15 µM. For the same molecule, the EC50 at human TLR7 and on human TLR8 was more than 100 µM each time.
For `CCCOc1cc(N)nc2cc(-c3ccn[nH]3)ccc12` [Compound 182], the IC50 in experiment [1] turned out to be 1.14 µM. The EC50 on human TLR7 and on human TLR8 was more than 100 µM each time.
For `CNC(=O)CCNc1cc(N)nc2cc(-n3cccn3)ccc12` [Compound 174], the IC50 in experiment [1] was found to be 0.82 µM. Further, the EC50 on human TLR7 and at human TLR8 was more than 100 µM each time.
As to `Nc1cc(OCCCC(F)(F)F)c2ccc(-c3ccsc3)cc2n1` [Compound 337], the IC50 in experiment [1] was 9.17 µM. Also, the EC50 on human TLR7 and at human TLR8 was more than 100 µM throughout.
In the case of `Nc1cc(CCCO)c2ccc(-n3cccn3)cc2n1` [Compound 216, 3-(2-amino-7-(1H-pyrazol-1-yl)quinolin-4-yl)propan-1-ol], in experiment [1], the IC50 was determined as 2.23 µM. Further, the EC50 on human TLR7 and at human TLR8 was more than 100 µM throughout.
On to `Nc1nc2cc(-c3ccn[nH]3)ccc2cc1C1CCOCC1` [Compound 116], for which the IC50 in experiment [1] is 4.07 µM. Moreover, the EC50 on human TLR7 and on human TLR8 was more than 100 µM throughout.
In the case of `Nc1cc(N2CCCNCC2)c2ccc(-c3cc[nH]n3)cc2n1` [Compound 286], the IC50 in experiment [1] stood at 13.1 µM. For the same molecule, the EC50 on human TLR7 and on human TLR8 was more than 100 µM in each case.
On to `Nc1cc(NC2COC2)c2ccc(-c3ccn[nH]3)cc2n1` [Compound 280], for which the IC50 in experiment [1] turned out to be 1.57 µM. Moreover, the EC50 at human TLR7 and on human TLR8 was more than 100 µM in each case.
`Nc1cc(OC[C@H](O)CN2CCOCC2)c2ccc(-c3ccn[nH]3)cc2n1` [Compound 349, (R)-1-((2-amino-7-(1H-pyrazol-5-yl)quinolin-4-yl)oxy)-3-morpholinopropan-2-ol]: the IC50 in experiment [1] worked out at 5.8 µM. The EC50 on human TLR7 and on human TLR8 was more than 100 µM in each case.
In the case of `Nc1cc(OC2CCOCC2)c2ccc(-c3ccn[nH]3)cc2n1` [Compound 186], in experiment [1], the IC50 came out at 1.08 µM. For the same molecule, the EC50 on human TLR7 and on human TLR8 was more than 100 µM each time.
Consider `CC(C)(O)CCOc1cc(N)nc2cc(-c3ccn[nH]3)ccc12` [Compound 195], for which the IC50 in experiment [1] worked out at 0.93 µM. For the same molecule, the EC50 on human TLR7 and at human TLR8 was more than 100 µM each time.
On to `COCc1cc2ccc(-c3ccn[nH]3)cc2nc1N` [Compound 113, 3-(methoxymethyl)-7-(1H-pyrazol-5-yl)quinolin-2-amine], for which the IC50 in experiment [1] turned out to be 11.9 µM. Moreover, the EC50 at human TLR7 and on human TLR8 was more than 100 µM each time.
In the case of `Nc1cc(NCCCn2cncn2)c2ccc(-c3ccn[nH]3)cc2n1` [Compound 231], in experiment [1], the IC50 was 1.27 µM. Besides, the EC50 on human TLR7 and at human TLR8 was more than 100 µM each time.
In the case of `Nc1cc(N[C@H]2CCCC[C@@H]2O)c2ccc(-c3ccn[nH]3)cc2n1` [Compound 160], the IC50 in experiment [1] worked out at 2.76 µM. The EC50 at human TLR7 and at human TLR8 was more than 100 µM each time.
With `Nc1cc(NCCn2cncn2)c2ccc(-n3cccn3)cc2n1` [Compound 308], in experiment [1], the IC50 worked out at 0.52 µM. Moreover, the EC50 at human TLR7 and at human TLR8 was more than 100 µM in each case.
Regarding `COC(=O)NCCNc1cc(N)nc2cc(-c3ccn[nH]3)ccc12` [Compound 205, methyl (2-((2-amino-7-(1H-pyrazol-5-yl)quinolin-4-yl)amino)ethyl)carbamate], the IC50 in experiment [1] is 1.29 µM. The concentration for a half-maximal effect (EC50) at human TLR7 and at human TLR8 was more than 100 µM in each case.
With `Nc1cc(NCCn2cccn2)c2ccc(-n3cccn3)cc2n1` [Compound 302], the IC50 in experiment [1] came out at 0.05 µM. Moreover, the 50% effective concentration (EC50) at human TLR7 and at human TLR8 was more than 100 µM each time.
Turning to `Nc1cc(N2CC(F)(F)C2)c2ccc(-c3ccn[nH]3)cc2n1` [Compound 271], the IC50 in experiment [1] was 0.36 µM. Besides, the EC50 on human TLR7 and at human TLR8 was more than 100 µM in each case.
For the molecule `Nc1cc(N[C@@H]2CCC[C@@H]2O)c2ccc(-c3ccn[nH]3)cc2n1` [Compound 232], the IC50 in experiment [1] was found to be 0.23 µM. Moreover, the EC50 at human TLR7 and at human TLR8 was more than 100 µM each time.
As for `CCOCCOc1cc(N)nc2cc(-c3ccn[nH]3)ccc12` [Compound 185], the IC50 in experiment [1] came to 0.56 µM. The EC50 at human TLR7 and at human TLR8 was more than 100 µM each time.
`Nc1cc(NC[C@H](O)CO)c2ccc(-c3ccn[nH]3)cc2n1` [Compound 153]: the IC50 in experiment [1] came to 1.11 µM. In addition, the concentration giving a half-maximal response (EC50) at human TLR7 and at human TLR8 was more than 100 µM throughout.
Take `Nc1cc(NCc2nc[nH]n2)c2ccc(-n3cccn3)cc2n1` [Compound 294]: the IC50 in experiment [1] came out at 0.21 µM. The EC50 at human TLR7 and on human TLR8 was more than 100 µM throughout.

For orientation: IC50 means the concentration needed to halve the response being measured. In general, EC50 refers to the concentration that produces a half-maximal response.
